According to patent publication US20070249729A1, “Method of Treating Elevated Plasma Homocysteine Levels in Esrd Patients” (priority 2003, published 2007):
Where “and” joins values, the source holds several entries; their conditions need not be identical. Identical values can stand only once. Each block holds one compound with its values, some of them ahead of it.

Key:
[1] = Intra-dialytic Mesna kinetics in 3 ESRD hemodialysis patients; format: in vivo, human
Description: (§1) To assess baseline total plasma Hcy concentrations, 5 ml blood samples (EDTA) were drawn pre- and post-dialysis for all 7 dialysis sessions during the 14 day study period. On day 5 (corresponding to the third dialysis session) blood samples were also drawn at various times throughout the dialysis treatment (0.5, 1.0, 2.0 and 3.0 hours) to determine baseline kinetic data. Undiluted ultrafiltrate was obtained from 2 patients by stopping the dialysate flow while maintaining the patient on ultrafiltration. Once 200 ml of dialysate had been displaced from the dialyzer, an undiluted ultrafiltrate sample was drawn from a port specially installed for the study. On the treatment day (a mid-week dialysis session corresponding to day 7 of the study), a single 5 mg/kg dose of Mesna was infused directly into the venous return on the dialysis machine over 5 minutes. Blood samples were drawn pre-dialysis, 4 minutes after Mesna administration, 0.5, 1.0, 2.0, 3.0 hours and post-dialysis. Undiluted ultrafiltrate was also collected from 2 of the patients as described above. Pre- and post-dialysis blood samples were also drawn on each of the 3 subsequent dialysis treatments (corresponding to days 9, 12 and 14) to determine the duration of Mesna's action and how long it remains in the blood. All blood samples were immediately placed on ice and centrifuged within 30 minutes at 1500×g for 10 minutes. Plasma and ultrafiltrate were stored at −20° C. until analysis.
Therefore, the inventors modified the chromoatographic conditions such that 4% acetonitrile was run for 7 minutes and then a gradient of 4% to 70% acetonitrile was used from 7 to 20 minutes.

albumin bound Hcy = albumin bound Hcy (Homo sapiens, UniProt P02768); details: 305 μmol/L Mesna
Description: Plasma was supplemented with reduced homocysteine (30 μmol/L) and allowed to equilibrate with protein and endogenous thiols for 72 hours. Mesna or diluent (control) was then added to the plasma and incubated at 37° C. for 15 minutes. 1 ml of plasma was pipetted into a micropartition device and centrifuged at 1500×g for 10 minutes. Free (dialyzable) Hcy was then determined in the ultrafiltrate.
30 ml of blood (EDTA) was obtained from a healthy subject with normal renal function. The blood was immediately centrifuged at 1500×g and the plasma was separated. D,L Homocysteine was then added to the plasma to a final concentration of 30 μmol/L. The sample was incubated at 4° C. for 72 hours to allow the homocysteine to covalently bind to protein and other thiols. Mesna was added to 1 ml of plasma to a final concentration of 305 μmol/L. An equal volume of diluent was added to 1 ml of plasma as a control. The plasma (1 ml) was then incubated at 37° C. for 15 minutes after which it was pipetted into an Amicon (Amicon Canada, Oakville, Ontario) type YMT micropartition system for separation of free from protein bound solutes. The micropartition system was centrifuged at 1500 X g for 10 minutes and the ultrafiltrate obtained was stored at −20° C. until analysis.
Total plasma Hcy and other low molecular weight thiols were measured by HPLC-FD after pre-column derivitization as described by Jacobsen et al.^20 Briefly, disulfide bonds were reduced with 1.43 M sodium borohydride. Excess reducing agent was consumed by the addition of 1.2 M HCl after which thiols were derivitized with monobromobimane. Protein was precipitated with 1.5 M perchloric acid and the sample pH was raised to ˜3.5 with a solution of 2M citrate and 10 N NaOH.
Thiol amino acids were separated on a Waters Nova-Pak C18 (150×3.9 mm, 5μ) column. The mobile phase consisted of 4% acetonitrile/25 mM ammonium formate buffer, pH=3.8. Since Mesna is also a low molecular weight thiol it can also be measured as a bimane derivative, although it is very late eluting when the above mentioned chromatographic conditions are used. […]

[2] = tested on: total plasma Hcy and cysteine; test: In vivo pilot study, 3 ESRD hemodialysis patients, single iv Mesna: intra-dialytic plasma tHcy and cysteine; set-up: species or system human
Source text: 3 vitamin supplemented ([…], Landmark Medical Systems Inc. Unionville, Ontario) maintenance hemodialysis patients (2 males, 1 female) were recruited from the dialysis unit at London Health Sciences Centre-University Campus. Inclusion criteria were any vitamin supplemented patients on thrice weekly hemodialysis for at least 90 days who were willing to sign a letter of informed consent. Patients were excluded from the study if they had serum albumin≦30 g/L. The study protocol was approved by the human subject research ethics board at the University of Western Ontario. Patients were dialyzed with Fresenius Optiflux hollow fiber dialyzers (Fresenius AG, Bad Homburg, Germany). […] On day 5 (corresponding to the third dialysis session) blood samples were also drawn at various times throughout the dialysis treatment (0.5, 1.0, 2.0 and 3.0 hours) to determine baseline kinetic data. Undiluted ultrafiltrate was obtained from 2 patients by stopping the dialysate flow while maintaining the patient on ultrafiltration. Once 200 ml of dialysate had been displaced from the dialyzer, an undiluted ultrafiltrate sample was drawn from a port specially installed for the study. On the treatment day (a mid-week dialysis session corresponding to day 7 of the study), a single 5 mg/kg dose of Mesna was infused directly into the venous return on the dialysis machine over 5 minutes. […] Undiluted ultrafiltrate was also collected from 2 of the patients as described above. Pre- and post-dialysis blood samples were also drawn on each of the 3 subsequent dialysis treatments (corresponding to days 9, 12 and 14) to determine the duration of Mesna's action and how long it remains in the blood. […] Plasma and ultrafiltrate were stored at -20° C. until analysis. […] Results are shown as mean +/-SD. Intra-dialytic changes in tHcy and cysteine concentrations were analyzed by a paired students t-test.

protein bound Hcy = protein bound Hcy (Homo sapiens, UniProt P02768); test: In vitro thiol exchange assay (free dialyzable Hcy in plasma/serum); details: for AUC of free Hcy vs time: 300 μM, plasma of healthy subjects, n=6, mean +/-SE
Description: To determine the efficacy of Mesna in vitro a thiol exchange assay was developed. This assay evaluates the ability of thiol-containing drugs to exchange with protein bound Hcy and other thiols yielding a larger free, dialyzable fraction of Hcy. 60 mL of blood was drawn from 6 healthy subjects and plasma was obtained by centrifugation at 1500×g. D,L Homocysteine was then added to each plasma sample to a final concentration of 30 μM. The samples were allowed to equilibrate at 4° C. for 72 hours to allow covalent, disulfide bonding of Hcy to plasma proteins. To conduct each assay, 380 μL of the aforementioned plasma was pipetted into a 1.7 mL polypropylene snap-cap tube. 20 uL of Mesna (diluted in 4 mM ethylenediaminetetraacetic acid disodium salt (EDTA), pH=7) was then added to the sample to final concentrations ranging from 0 μM (EDTA vehicle) to 10 000 μM. The sample was incubated for 30 minutes at 37° C. 50 μL aliquots were removed at 0, 2, 5, 10, 15 and 30 at which time plasma proteins were precipitated with 25 μL of 15% sulphosalicylic acid. […] Results for each concentration of Mesna are mean +/−SE, n=6.
Numerous compounds that may modulate protein binding and thiol exchange accumulate in the serum of patients with end-stage renal disease (ESRD). To verify that none of these compounds alter Mesna's exchange with protein bound Hcy, a single concentration of Mesna (300 μM) was tested in a thiol exchange assay (described in Example 4) in serum from patients with ESRD or healthy controls.
The in vitro thiol exchange potential of Mesna was compared with another thiol-containing drug, n-acetylcysteine (NAC) by the thiol exchange assay described in Example 4. 300 μM NAC was compared with 150 and 300 μM Mesna in the plasma of healthy subjects.

[3] = human, in vivo
Description: To evaluate the in vivo effect of Mesna on plasma tHcy, 5 maintenance hemodialysis patients were recruited to participate in a single dose pilot study. Blood samples were drawn at selected intervals during a mid-week dialysis session during which no Mesna was given. One week later, subjects received a single, 5 mg/kg, pre-dialysis, intravenous dose of Mesna and blood samples were drawn throughout the dialysis session. Dialysate samples were also collected from 2 patients. Total Hcy and cysteine were measured in plasma and dialysate by the modified method of Jacobsen et al.^20 Mesna caused a profound, rapid decrease in plasma tHcy and cysteine (see FIG. 11 and 12). […] A pre-dialysis plasma sample was also drawn before the next dialysis session 2 days later. Plasma tHcy was 2.3 μM lower with Mesna than control (P=0.047) indicating a residual effect of Mesna on tHcy concentrations.
Concentrations of Mesna were also measured in plasma (n=5) and dialysate (n=2) (see FIG. 13).

[4] = Tolerability of Mesna in ESRD hemodialysis patients; format: in vivo, human
Description: as §1, with “Plasma and ultrafiltrate were stored at −20° C. until analysis.” left out

plasma Hcy = details: iv Mesna for 5 days, cancer chemotherapy patients, from 12.3 μmol/L; cited from earlier work
plasma tHcy and cysteine = test: Single dose pilot study, 5 maintenance hemodialysis patients: plasma and dialysate tHcy and cysteine; format: in vivo, human
Description: Blood samples were drawn at selected intervals during a mid-week dialysis session during which no Mesna was given. One week later, subjects received a single, 5 mg/kg, pre-dialysis, intravenous dose of Mesna and blood samples were drawn throughout the dialysis session. Dialysate samples were also collected from 2 patients. […] A pre-dialysis plasma sample was also drawn before the next dialysis session 2 days later.

[5] = tested on: plasma tHcy, fractional excretion of Hcy; test: Oral Mesna, Hcy clearance in 2 subjects with normal kidney function; format: in vivo, human
Description: The effect of oral Mesna on Hcy clearance was also evaluated in 2 subjects with normal kidney function. The subjects fluid loaded by consuming 2 L of water the morning of the study day. An indwelling catheter was inserted into an appropriate arm vein. At the beginning of the study subjects were asked to void urine and 2×5 mL blood samples were drawn for analysis of tHcy and creatinine. Subsequent blood samples were drawn at 0.5, 1.0 and 1.5 hours for determination of baseline tHcy and creatinine. At these times subjects were also asked to void urine for measurement of urinary tHcy, creatinine and urine volume. Subjects were then given a 10 mg/kg oral dose of Mesna. One hour after the dose, subjects were asked to void their urine and 2×5 mL blood samples were drawn for determination of tHcy and creatinine. At 1.5, 2.0, and 2.5 hours after Mesna, blood samples were drawn for tHcy and creatinine analysis. Urine was also collected at these times for determination of urinary Hcy, creatinine and urinary volume. A final blood sample was drawn 4 hours after administration of Mesna. Mesna caused a slow, small (1.5 μM) decrease in plasma tHcy concentration in both subjects (see FIG. 14). Mesna was detectable in plasma however, maximum concentration (mean 88.6 μM) was less than the 5 mg/kg administered intravenously to dialysis patients (FIG. 15). The fractional excretion of Hcy ([CLHcy/CLCreat]*100) was assessed in the presence and absence of Mesna (see FIG. 16). In the absence of Mesna the fractional excretion of Hcy was only 0.1%. When Mesna was administered the fractional Hcy excretion raised 60 fold to 6.0%.

[6] = cited from earlier work
[7] = isolated perfused rat liver; cited from earlier work
plasma tHcy = details: oral, 4 weeks of treatment, patients on hemodialysis; cited from earlier work
[8] = single 5 mg/kg pre-dialysis iv dose, n=5

Chain of albumin bound Hcy (P02768 25-609): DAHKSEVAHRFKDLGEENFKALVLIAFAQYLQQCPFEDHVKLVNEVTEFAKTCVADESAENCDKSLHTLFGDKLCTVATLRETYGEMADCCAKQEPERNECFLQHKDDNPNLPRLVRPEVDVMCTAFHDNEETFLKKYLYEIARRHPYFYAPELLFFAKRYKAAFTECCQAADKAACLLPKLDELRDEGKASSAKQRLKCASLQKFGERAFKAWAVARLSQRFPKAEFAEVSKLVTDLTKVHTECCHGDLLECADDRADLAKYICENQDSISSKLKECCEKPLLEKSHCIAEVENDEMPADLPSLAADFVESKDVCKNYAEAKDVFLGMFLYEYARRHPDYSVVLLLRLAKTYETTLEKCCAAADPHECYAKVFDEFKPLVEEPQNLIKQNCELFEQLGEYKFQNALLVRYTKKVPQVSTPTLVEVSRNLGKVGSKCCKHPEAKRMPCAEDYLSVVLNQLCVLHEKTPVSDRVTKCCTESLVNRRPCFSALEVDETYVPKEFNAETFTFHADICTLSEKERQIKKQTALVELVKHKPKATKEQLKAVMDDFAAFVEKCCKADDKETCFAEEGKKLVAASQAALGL
Chain of protein bound Hcy (P02768 25-609): as above

concentration at 14 study day ([1]; human, plasma, intravenous, 5 mg/kg, end of the study period (day 14)): 13.4 µM
concentration at 4 min ([1]; human, plasma, shortly after administration, 5 mg/kg iv, 3 patients): 296 µM
plasma Mesna concentration ([1]; post-dialysis, 5 mg/kg iv, 3 patients): 89.7 ± 32.5 µmol/L
plasma Mesna concentration ([1]; second patient, ~3.5 hours after administration, at onset of nausea): ~60 µmol/L
free Hcy as % of the total plasma Hcy (albumin bound Hcy; 15 minute incubation): 27.2% and 27%
Hcy in the free dialyzable form (ultrafiltrate) (albumin bound Hcy; 15 minute incubation at 37° C., plasma spiked with 30 μmol/L Hcy): 8.2 µmol/L
effect on fraction of free dialyzable Hcy (protein bound Hcy; 0 to 10 000 μM Mesna, plasma spiked 30 μM Hcy, n=6): concentration dependent increase
AUC of thiol exchange, ESRD serum vs. healthy controls (protein bound Hcy; 300 μM Mesna, P>0.05): no significant difference
AUC of free Hcy vs time (protein bound Hcy): 1023+/−86.0
time to maximal thiol exchange after Mesna addition (protein bound Hcy; further in vitro studies with plasma): ≤ 2 min
elimination during dialysis [3]: first order elimination
Compound: O=S(=O)(O)CCS.[Na] [Mesna, sodium 2-mercaptoethane sulfonic acid]
effect on post-dialysis cysteine ([2]; 5 mg/kg iv, 3 patients, p=0.009): significant decrease
effect on post-dialysis tHcy ([2]; 5 mg/kg iv, 3 patients, p=0.035): significant decrease
pre-dialysis plasma Hcy at second cycle after Mesna ([2]; day 12, all patients): returned to baseline
time to decrease of total plasma homocysteine after administration ([2]; intravenous Mesna, human subjects): ≤ 30 min
decrease in pre-dialysis plasma tHcy, day 9 vs day 7 ([2]; patient 1): 3.7 µmol/L
decrease in pre-dialysis plasma tHcy, day 9 vs day 7 ([2]; patient 2): 1.1 µmol/L
decrease in pre-dialysis plasma tHcy, day 9 vs day 7 ([2]; patient 3): 3.1 µmol/L
post-dialysis tHcy concentration ([2]; single iv 5 mg/kg Mesna, 3 ESRD patients): 10.1 µmol/L
additional decrease of total plasma Hcy compared to dialysis alone ([2]; single iv 5 mg/kg dose during dialysis): 29%
UF Hcy following Mesna treatment ([2]; undiluted ultrafiltrate, 2 patients): No increase
tolerability, side effect ([4]; 5 mg/kg iv, two of 3 patients): mild nausea
plasma Hcy after Mesna (plasma Hcy): 1.4 µmol/L
dialysate Hcy with Mesna compared to control (plasma tHcy and cysteine; n=2): slight increase
pre-dialysis plasma tHcy lower with Mesna than control (plasma tHcy and cysteine; next dialysis session 2 days later, P=0.047): 2.3 µM
post-dialysis plasma cysteine (plasma tHcy and cysteine; [8]): 165.1 ± 7.4 µM
post-dialysis plasma tHcy (plasma tHcy and cysteine; [8]): 11.6 ± 1.7 µM
rise of fractional Hcy excretion ([5]; 10 mg/kg oral dose vs absence of Mesna): 60 fold
decrease in plasma tHcy concentration ([5]; 10 mg/kg oral dose, 2 subjects with normal kidney function): 1.5 µM
fractional excretion of Hcy ([CLHcy/CLCreat]*100) ([5]; 10 mg/kg oral dose, normal kidney function): 6.0%
pKa of the thiol [6]: 9.1

Compound: N[C@@H](CCS)C(=O)O [homocysteine]
pKa of the thiol [6]: 8.7

Compound: O=S(=O)([O-])CCSSCCS(=O)(=O)[O-].[Na+].[Na+] [diMesna, Mesna disulfide]
metabolic reduction [7]: reduce diMesna to Mesna

Compound: CN(C)CCOC(c1ccccc1)c1ccccc1.Cn1c(=O)c2[nH]c(Cl)nc2n(C)c1=O [dimenhydrinate]
time to reversal of nausea symptoms ([4]; administration of dimenhydrinate to patients with Mesna-associated nausea): ≤ 1 min

Compound: N[C@@H](CS)C(=O)O [cysteine]
pKa of the thiol [6]: 8.15

AUC of free Hcy vs time (protein bound Hcy): 642+/−49.7
Compound: CC(=O)N[C@@H](CS)C(=O)O [NAC, n-acetylcysteine]
effect on pre-dialysis plasma tHcy (plasma tHcy): small, non-significant decrease
